Drawing on patent US10299475B2, “Pesticide” (ISHIHARA SANGYO KAISHA, LTD., priority 2013, dated 2019), this text covers mortality for seven molecules.

This assay relates to Haemaphysalis longicornis (larvae). The experiment in a line: Test for examining effect on Haemaphysalis longicornis (larvae), coated vial contact test. Type of assay: in vivo. The note with it: 100 ppm solution coated on plastic vial, 20 larvae, 24 hours after contact, 25° C., constant dark, relative humidity 80-100%. The text has this:
Test for Examining Effect on Haemaphysalis longicornis (larvae)
Turning to `CC(C)CNC(=O)c1ccc(CCOc2ccc(Cl)c(I)c2)cc1` [1-326, N-isobutyl-4-(2-(4-chloro-3-iodophenoxy)ethyl)benzamide], the mortality at 100 ppm was ≥ 90%. Take `CC(C)CNC(=O)c1ccc(CCOc2cccc(OC(F)(F)F)c2)cc1` [1-24, N-isobutyl-4-(2-(3-(trifluoromethoxy)phenoxy)ethyl)benzamide]: the mortality at 100 ppm was ≥ 90%.

For the molecule `CC(C)CNC(=O)c1ccc(CCOc2ccc(F)c(-c3ccccc3)c2)cc1` [4-6, N-isobutyl-4-(2-(4-fluoro-3-phenylphenoxy)ethyl)benzamide], the mortality at 100 ppm was ≥ 90%.

Regarding `CC(C)CNC(=O)c1ccc(CCOc2cccc(-c3ccc(Cl)cc3Cl)c2)cc1` [4-187, N-isobutyl-4-(2-(3-(2,4-dichlorophenyl)phenoxy)ethyl)benzamide], the mortality at 100 ppm is ≥ 90%.

For the molecule `CC(C)CNC(=O)c1ccc(CCOc2ccc(OC(F)(F)F)cc2)cc1` [1-25, N-isobutyl-4-(2-(4-(trifluoromethoxy)phenoxy)ethyl)benzamide], the mortality at 100 ppm is ≥ 90%. For the molecule `CC(C)CNC(=O)c1ccc(CCOc2cccc(Br)c2)cc1` [1-9, N-isobutyl-4-(2-(3-bromophenoxy)ethyl)benzamide], the mortality at 100 ppm is ≥ 90%. To `CC(C)CNC(=O)c1ccc(CCOc2ccc(Cl)c(-c3ccc(Cl)cc3)c2)cc1` [4-115, N-isobutyl-4-(2-(4-chloro-3-(4-chlorophenyl)phenoxy)ethyl)benzamide] belongs ≥ 90%.
